From patent publication US20250352535A1, “MDM2 DEGRADERS AND USES THEREOF” (Kymera Therapeutics, Inc., priority 2022, published 2025) come the findings set out here.

The test system of series [1] is RS4;11 ALL model. The experiment in a line: RS4;11 ALL xenograft efficacy. It is filed as in vivo, NOD/SCID mice. To be noted: for median survival: n=6 animals/group. As for the experimental part:
(§1) RS4;11 and MV4;11 tumors were established subcutaneously in the hind flank of NOD/SCID mice. Mice were randomized and treated with Compound A as either a single pulse dose or weekly for 3 weeks at doses matched for total AUC. MDM2 SMI DS-3032 (Milademetan) was dosed at its clinically equivalent dose and regimen of 3 days on/11 days off. Pharmacodynamic effects were assessed at mRNA level by RT-qPCR and protein level by quantitative targeted mass spectrometry and immunohistochemistry.

Series [2] relates to MV4;11 AML model. The experiment in a line: MV4;11 AML xenograft efficacy. It is filed as in vivo, NOD/SCID mice. As for the experimental part: as §1
For series [3], the system named is p53 pathway and cleaved caspase-3 (CC-3) in RS4;11 tumors. The experiment in a line: IHC analysis of RS4;11 tumors. It is filed as in vivo, NOD/SCID mice. To be noted: n=3/group. Here is the method: as §1
Series [4] deals with p53 pathway and cleaved caspase-3 (CC-3) in MV4;11 tumors. The experiment in a line: IHC analysis of MV4;11 tumors. Format: in vivo, NOD/SCID mice. To be noted: n=3/group. Here is the method:
as §1

The subject of series [5] is MOLM-13 xenograft model. Put plainly: MOLM-13 xenograft combination study. Format: in vivo.
A short description of series [6]: Aqueous solubility of drug substance. Format: physicochemical. To be noted: aqueous media over pH 3 to 8, aqueous buffer, pH range between 3 to 8. As for the experimental part: (§2) Compound A for injection was manufactured as a concentrated frozen solution containing 10 mg/mL of free base intended to be diluted with an intravenous (IV) infusion vehicle (normal saline, 0.9% sodium chloride, injection). […] To achieve drug concentration of 10 mg/mL, formulation development focused on identifying acceptable pharmaceutical solvents, surfactants, and pH modifiers to achieve the required solubility of Compound A.

The nature of series [7]: Measured pKa. Format: physicochemical. As to conditions: free base. As for the experimental part:
as §2

Series [8] can be described thus: Measured Log D. To be noted: free base. It is filed as physicochemical.
Series [9] is described as follows: Solubility/stability screening in IV excipients. Format: physicochemical. The text has this:
Initial solubility screening of Compound A focused on using different enabling excipients suitable for IV administration. The screening included surfactants, cosolvents, and pH modifiers (i.e., glacial acetic acid, and hydrochloric acid). […] As a result, the selected formulation to support the GLP toxicology study was comprised of 30% propylene glycol, 3% Solutol HS15, and 0.01 M in acetate buffer at pH 5±0.2.
The clinical formulation development was centered on using organic concentrates without water to avoid hydrolysis of Compound A. Additional solubility and stability evaluations of Compound A were conducted with different types of co-solvents and surfactants with and without butylated hydroxytoluene as antioxidant.

Series [10] has as its system panel of solid and hematological tumor cell lines. Put plainly: Cell growth inhibition across tumor cell line panel. Format: cell-based. To be noted: versus MDM2 small molecule inhibitors (SMIs). Here is the method:
(§3) All cell lines were cultured according to recommended procedures unless otherwise noted. For growth inhibition assays, cells were treated with compounds for indicated time points. Viability was assessed using Promega® CellTiter-Glo® assay, and apoptosis was assessed using Promega® Caspase-Glo® 3/7 assay. Cell cycle arrest and/or apoptosis in response to single agent or combination treatment was assessed using flow cytometry analysis on cells treated for 24h.

The subject of series [11] is acute lymphoblastic leukemia (ALL) cell line RS4;11. The experiment in a line: MDM2/p53 pathway and apoptosis in RS4;11 cells. It is filed as cell-based.
Series [12] concerns MOLM-13 cell line. The experiment in a line: Combination apoptosis and cell killing in MOLM-13. To be noted: combination with venetoclax and midostaurin. Format: cell-based. Here is the method: as §3
In series [13] the test system is multiple heme indications (AML, T cell lymphomas, mantle cell lymphoma, DLBCL). Put plainly: In vitro activity across heme indications. Format: cell-based. To be noted: mantle cell lymphoma and DLBCL most sensitive. Here is the method:
as §3

Series [14] relates to CTG-2227 AML patient-derived xenograft (PDX) model. The experiment in a line: AML PDX model CTG-2227. As to conditions: 1 mg/kg, Q3W, IV. It is filed as in vivo, mice. As for the experimental part: (§4) AML patient cells from leukapheresis were intravenously (IV) injected and established in immunocompromised host strain mice. Surrogate animals were used to determine the level of engraftment targeting a threshold of ˜20% huCD45+ cells in BM. Mice were randomized on study and treatment was initiated. Vehicle and Compound A, 1 mg/kg were administered IV, every three weeks for six weeks (total of two doses of Compound A). At study end, whole blood, bone marrow and spleen were assessed by flow cytometry.

Series [15] deals with CTG-2240 AML PDX model. The experiment in a line: AML PDX model CTG-2240. As to conditions: 1 mg/kg, Q3W, IV. It is filed as in vivo, mice. Here is the method: as §4
The subject of series [16] is CTG-2700 AML PDX model. Put plainly: AML PDX model CTG-2700. Format: in vivo, mice. As to conditions: 1 mg/kg, Q3W, IV. As for the experimental part:
as §4

For series [17], the system named is hCD45+ cells in bone marrow and AML blasts. Put plainly: Flow cytometry of AML PDX models. To be noted: 1 mg/kg, Q3W. It is filed as in vivo, mice. Here is the method:
as §4
In general terms: A flow cytometer gives signals particle by particle.

Series [18] deals with OCI-LY10 p53^WT ABC-subtype DLBCL xenograft model. Put plainly: OCI-LY10 DLBCL xenograft. Format: in vivo.
The subject of series [19] is TMD8 p53^MUT ABC-subtype DLBCL xenograft model. Put plainly: TMD8 DLBCL xenograft. Format: in vivo.
In series [20] the target is T1, MDM2 (Homo sapiens, UniProt Q00987).
T1 construct: RS4;11 and MV4;11 tumors were established subcutaneously in the hind flank of NOD/SCID mice; endogenous in cells; host or cells: RS4;11 xenograft tumors in NOD/SCID mice
Put plainly: Targeted proteomic analysis of RS4;11 tumors: MDM2. To be noted: one hour post dosing. It is filed as in vivo, NOD/SCID mice. Here is the method:
as §1

Series [21] deals with p53 pathway (p53, p21, PHLDA3). Put plainly: Targeted proteomic analysis of RS4;11 tumors: p53 pathway biomarkers. Format: in vivo, NOD/SCID mice. Here is the method: as §1
Series [22] concerns apoptotic gene BBC3 in RS4;11 tumors. Put plainly: qPCR analysis of RS4;11 tumors. It is filed as in vivo, NOD/SCID mice. As for the experimental part: as §1
Background: Quantitative PCR measures a nucleic acid by following its amplification.

T1 sequence (Q00987 whole entry): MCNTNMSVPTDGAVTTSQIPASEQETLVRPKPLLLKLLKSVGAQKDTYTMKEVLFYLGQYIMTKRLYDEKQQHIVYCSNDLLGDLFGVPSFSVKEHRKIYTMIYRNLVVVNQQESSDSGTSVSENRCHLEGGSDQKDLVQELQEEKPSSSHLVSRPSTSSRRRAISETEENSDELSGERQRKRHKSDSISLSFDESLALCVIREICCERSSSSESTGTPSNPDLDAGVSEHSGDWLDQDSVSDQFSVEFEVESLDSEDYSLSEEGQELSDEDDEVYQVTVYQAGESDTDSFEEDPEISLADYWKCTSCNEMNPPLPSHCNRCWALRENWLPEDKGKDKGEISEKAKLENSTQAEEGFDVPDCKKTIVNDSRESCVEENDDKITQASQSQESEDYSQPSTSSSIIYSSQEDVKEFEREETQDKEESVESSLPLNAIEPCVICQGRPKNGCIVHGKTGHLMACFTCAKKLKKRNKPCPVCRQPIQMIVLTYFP

On to `CC1(C)CCC2(CC1)N[C@@H](C(=O)N[C@@H]1CC[C@@H](C(N)=O)OC1)[C@H](c1ccnc(Cl)c1F)[C@]21C(=O)Nc2cc(Cl)ccc21` [DS-3032, Milademetan, reference compound], for which the median survival in series [1] (clinically equivalent dosing regimen (3 days on/11 days off)) was found to be 12 days. Further, in series [2] (clinically equivalent dose and regimen, n=6 animals/group), the complete responses result is listed as “No complete responses”. In addition, the “induction of CC-3 (IHC)” value in [3] (treatment with the SMI) is “not observed”; in series [4] (similar to the lower weekly dosing regimen of Compound A), “modest”.
Turning to `Nc1ccn([C@@H]2O[C@H](CO)[C@@H](O)[C@@H]2O)c(=O)n1` [cytarabine], the anti-tumor activity result in series [5] (combination of cytarabine and venetoclax) is given as “no significant anti-tumor activity”; in series [5] (cytarabine alone), “no significant anti-tumor activity”.
By solubility is commonly meant how much of the substance goes into solution per volume. A high value points to a readily soluble substance. As usually defined, the pKa is the negative logarithm of the acid dissociation constant. By logD is commonly meant the decadic logarithm of the distribution of all forms, ionised or not, between an organic phase and buffer at a given pH. A low value points to lower lipophilicity. Consider `Cn1c(=O)n(C2CCC(=O)NC2=O)c2ccc(C3CCN(C(=O)[C@H]4CC[C@H](NC(=O)[C@@H]5NC6(CCCCC6)[C@@]6(C(=O)Nc7cc(Cl)ccc76)[C@H]5c5cccc(Cl)c5F)CC4)CC3)cc21` (stereo partly drawn) [Compound A, (3′R,4′S,5′R)-6″-chloro-4′-(3-chloro-2-fluorophenyl)-N-((1R,4R)-4-(4-(1-(2,6-dioxopiperidin-3-yl)-3-methyl-2-oxo-2,3-dihydro-1H-benzo[d]imidazol-5-yl)piperidine-1-carbonyl)cyclohexyl)-2″-oxodispiro[cyclohexane-1,2′-pyrrolidine-3′,3″-indoline]-5′-carboxamide], for which the solubility is below 10 µg/mL in series [6]; “significantly enhanced” in series [9] (formulations containing propylene glycol, polyethylene glycol 400, Solutol HS15 and polysorbate 80 at low pH). This molecule yielded a pKa in series [7] of 5. Also, the logD in [8] is above 3.7. Also, the solubility and stability entry in series [9] (combination of polyethylene glycol 400, ethanol, polysorbate 80 and butylated hydroxytoluene, 10 mg/mL) is “sufficient solubility and stability”. The “cell growth inhibition compared to SMIs” value in [10] is recorded as above 200 fold. The “effect on p53-dependent upregulation of MDM2 protein levels” value in series [11] (compared with reversible SMIs) is on record as “can overcome the p53-dependent upregulation of MDM2 protein levels”. Moreover, the “apoptosis in washout experiments” value in [11] (pulsed dose, mediated through p53 target genes) was “can lead to apoptosis”. Moreover, the p53 stabilization result in series [11] (short 2 hour exposures, versus SMIs) was “more potently stabilize p53 than SMIs”. Besides, the “induction of apoptosis and cell killing” value in series [12] was “enhances induction of apoptosis and cell killing”. Besides, the in vitro activity result in series [13] is recorded as “active across multiple heme indications”. Also, the tumor response result was “tumor regression” in series [14]; “partial responses” in [15]; “partial responses” in series [16]; “tumor stasis” in series [1] (exposure-matched weekly dosing); “tumor regression” in series [1] (single doses). For the same molecule, the “hCD45+ cells in bone marrow and AML blasts” value in series [17] is reported as “significantly reduces”. The anti-tumor activity entry in series [5] (single dose of Compound A in combination with daily dosing of venetoclax) is on record as “sustained tumor regression”. Besides, the “activity in xenograft model” value in [18] is recorded as “highly active”. Besides, the “highly active in xenograft model” value in [19] is “not”. Moreover, the “plasma concentration required for tumor regression” value in series [1] (maintained for 12 to 22 hours) is recorded as “above 0.01 uM”. In series [1] (single dose at 3 mg/kg), the median survival is 50 days. Moreover, in series [2] (single dose at 3 mg/kg), the complete responses is listed as 5 of 6. The tumor-free on study in [2] (single dose at 3 mg/kg, 80 days post dosing) was 4 of 6. Also, the “degradation of MDM2 in tumors” value in [20] is given as “robust degradation”. The “proteomics biomarkers p53, p21 (cell cycle arrest marker) and PHLDA3 (apoptotic marker)” value in series [21] is listed as “upregulation”. Also, the “activation of the p53 pathway and induction of CC-3 (IHC)” value in series [3] (single dose versus exposure-matched weekly dosing) was “more robust activation of the p53 pathway and induction of cleaved caspase-3 (CC-3)”; in [4] (single dose), “robust activation of the p53 pathway and induction of cleaved caspase-3 (CC-3)”. In series [4] (exposure-matched weekly dosing), the “robust activation of the p53 pathway and induction of CC-3 (IHC)” value is “not”. In addition, the “plasma concentration required for induction of the apoptotic gene BBC3” value in series [22] (RS4;11 tumors) is “above 0.02 uM”. The “increase in apoptotic markers (qPCR)” value in series [22] (exposure-matched weekly dosing, n=3/group) is reported as “only a moderate increase”. In series [22] (single doses that lead to tumor regression, n=3/group), the “induction of the apoptotic gene BBC3 (qPCR)” value was “robust induction”.
